In brackets after ≈: the same amount, converted by molar mass.
Tested on: P388
Assay: Cytotoxicity against mouse P388 cells
Format: functional
Settings: read-out: ED50 (the source's name)

COc1cc2cc(COC(C)=O)c(C(=O)O[C@@H]3O[C@H](CO)[C@@H](O)[C@H](O)[C@H]3O)c(-c3ccc4c(c3)OCO4)c2cc1OC [PHYLLANTHOSTATIN A]
EC50: 4 µg/mL (≈ 6.82 µM)

— ChEMBL document CHEMBL1151119, “Isolation and structure of the cytostatic lignan glycoside phyllanthostatin A” (1988)
